According to ChEMBL document CHEMBL1201862, “PubChem BioAssay data set” (2004):
Values joined by “and” are separate entries in the source; they are usually repeats but may differ in a detail not shown here. Identical values can stand only once.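 96-well plates; 48 h exposure; 5 concentrations. Endpoints by linear interpolation between flanking doses. Not reached: highest tested concentration assigned. At the GI50, growth is halved.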 Active and inactive are the calls of the source. Cut-off read from the data, not from the text of the source: active = GI50 up to about 1.1 µM and inactive = higher.

Legend:
Assay in all cases: inhibition of tumour cell growth, NCI panel, 48 h
Hs-578T = test system: Hs-578T
SW-620 = test system: SW-620
K562 = test system: K562
RPMI-8226 = test system: RPMI-8226
PC-3 = test system: PC-3
OVCAR-4 = test system: OVCAR-4
SK-MEL-5 = test system: SK-MEL-5
SNB-75 = test system: SNB-75
SF-295 = test system: SF-295
NCI-H522 = test system: NCI-H522
SN12C = test system: SN12C
MDA-MB-231 = test system: MDA-MB-231
A549 = test system: A549
UACC-257 = test system: UACC-257
MOLT-4 = test system: MOLT-4
CAKI-1 = test system: CAKI-1
UO-31 = test system: UO-31
HCC 2998 = test system: HCC 2998

SMILES | GI50 (Hs-578T) | GI50 (SW-620) | GI50 (K562) | GI50 (RPMI-8226) | GI50 (PC-3) | GI50 (OVCAR-4) | GI50 (SK-MEL-5) | GI50 (SNB-75) | GI50 (SF-295) | GI50 (NCI-H522) | GI50 (SN12C) | GI50 (MDA-MB-231) | GI50 (A549) | GI50 (UACC-257) | GI50 (MOLT-4) | GI50 (CAKI-1) | GI50 (UO-31) | GI50 (HCC 2998)
COc1ccc2c(Cl)cc(NC(=S)Nc3ccccc3)nc2c1 | 14.4 µM (inactive) | 26.4 µM (inactive) | 23.4 µM (inactive) | 21.2 µM (inactive) | 28.6 µM (inactive) | 32.4 µM (inactive) | 33.6 µM (inactive) | 23.6 µM (inactive) | 31.6 µM (inactive) | 13.2 µM (inactive) | 33.3 µM (inactive) | 26.4 µM (inactive) | 29.5 µM (inactive) | 60.8 µM (inactive) | 25.2 µM (inactive) | 35.6 µM (inactive) | – | –
CC(NC(=O)c1ccccc1)(C(=O)O)C(=O)O | > 100 µM (inactive) | > 100 µM (inactive) | > 100 µM (inactive) | > 100 µM (inactive) | > 100 µM (inactive) | > 100 µM (inactive) | > 100 µM (inactive) | > 100 µM (inactive) | > 100 µM (inactive) | > 100 µM (inactive) | > 100 µM (inactive) | > 100 µM (inactive) | > 100 µM (inactive) | > 100 µM (inactive) | > 100 µM (inactive) | > 100 µM (inactive) | > 100 µM (inactive) | –
CN1CCN(c2ccc([N+](=O)[O-])c3no[n+]([O-])c23)CC1 | 0.571 µM (active) | 0.0631 µM (active) | 0.0881 µM (active) | 0.0628 µM (active) | 0.557 µM (active) | 0.689 µM (active) | 0.743 µM (active) | 0.0103 µM (active) | 0.0424 µM (active) | 0.0295 µM (active) | 0.106 µM (active) | 1.34 µM (inactive) | 0.207 µM (active) | 1.19 µM (inactive) | – | 0.032 µM (active) | 0.239 µM (active) | –
N=C(N)N/N=C/c1c(-c2cc([N+](=O)[O-])c(Cl)cc2Cl)nc2sccn12 | 1.54 µM (inactive) and 1.53 µM (inactive) | 435 nM (active) and 1.27 µM (inactive) | 242 nM (active) and 746 nM (active) | 1.27 µM (inactive) and 1.75 µM (inactive) | 1.45 µM (inactive) and 2.01 µM (inactive) | 1.66 µM (inactive) | 1.58 µM (inactive) and 1.35 µM (inactive) | 0.0155 µM (active) | 1.56 µM (inactive) and 1.47 µM (inactive) | 340 nM (active) and 1.76 µM (inactive) | 2 µM (inactive) and 1.34 µM (inactive) | 200 nM (active) and 2.02 µM (inactive) | 1.82 µM (inactive) and 1.51 µM (inactive) | 1.41 µM (inactive) and 1.44 µM (inactive) | 0.124 µM (active) | 6.27 µM (inactive) | 2.05 µM (inactive) and 1.29 µM (inactive) | –
C[C@H](c1ccccc1)N1C(=O)[C@@H](OCc2ccccc2)[C@H]1[C@H](COC(=O)COCc1ccccc1)OCc1ccccc1 | 60.7 µM (inactive) | > 100 µM (inactive) | > 100 µM (inactive) | 27.9 µM (inactive) | 77.4 µM (inactive) | – | 58.7 µM (inactive) | 9.08 µM (inactive) | > 100 µM (inactive) | 86.9 µM (inactive) | > 100 µM (inactive) | > 100 µM (inactive) | > 100 µM (inactive) | – | 67.5 µM (inactive) | – | 7.69 µM (inactive) | –
O=[N+]([O-])c1cc([N+](=O)[O-])c(Nn2c3ccccc3c3ccccc32)c([N+](=O)[O-])c1 | 2.46 µM (inactive) | 3.02 µM (inactive) | 1.14 µM (inactive) | 0.65 µM (active) | 1.25 µM (inactive) | 2.12 µM (inactive) | 1.94 µM (inactive) | – | 1.25 µM (inactive) | 0.403 µM (active) | 1.79 µM (inactive) | – | 2.82 µM (inactive) | – | 0.69 µM (active) | – | 2.07 µM (inactive) | 2.74 µM (inactive)
Cc1cc(=O)oc2c(CNC(C(=O)O)C(C)O)c(O)ccc12 (configuration not stated) | 77.4 µM (inactive) | > 100 µM (inactive) | > 100 µM (inactive) | > 100 µM (inactive) | > 100 µM (inactive) | > 100 µM (inactive) | > 100 µM (inactive) | 8.89 µM (inactive) | > 100 µM (inactive) | > 100 µM (inactive) | > 100 µM (inactive) | > 100 µM (inactive) | > 100 µM (inactive) | > 100 µM (inactive) | > 100 µM (inactive) | > 100 µM (inactive) | > 100 µM (inactive) | –
O=C1/C(=N/c2ccccc2)Oc2cc(O)ccc21 | – | > 100 µM (inactive) | > 100 µM (inactive) | – | > 100 µM (inactive) | > 100 µM (inactive) | > 100 µM (inactive) | > 100 µM (inactive) | > 100 µM (inactive) | > 100 µM (inactive) | > 100 µM (inactive) | > 100 µM (inactive) | > 100 µM (inactive) | > 100 µM (inactive) | > 100 µM (inactive) | > 100 µM (inactive) | > 100 µM (inactive) | > 100 µM (inactive)
